This is an account of results in US20220041647A1, “ESTRA-1,3,5(10)-TRIENE COMPOUNDS CONDENSED IN POSITION 16(17) WITH A PYRAZOLE RING AS INHIBITORS OF 17-HSD1” (FORENDO PHARMA LTD, priority 2018, published 2022).

What all share (type): biochemical
In assay [1] the target is T1, recombinant human 17β-HSD1 (Homo sapiens, UniProt P14061).
T1 construct: made in house; host or cells: Sd9 (Sf9) insect cells, baculovirus (Bac to Bac Expression System)
T1 sequence (P14061 1-328): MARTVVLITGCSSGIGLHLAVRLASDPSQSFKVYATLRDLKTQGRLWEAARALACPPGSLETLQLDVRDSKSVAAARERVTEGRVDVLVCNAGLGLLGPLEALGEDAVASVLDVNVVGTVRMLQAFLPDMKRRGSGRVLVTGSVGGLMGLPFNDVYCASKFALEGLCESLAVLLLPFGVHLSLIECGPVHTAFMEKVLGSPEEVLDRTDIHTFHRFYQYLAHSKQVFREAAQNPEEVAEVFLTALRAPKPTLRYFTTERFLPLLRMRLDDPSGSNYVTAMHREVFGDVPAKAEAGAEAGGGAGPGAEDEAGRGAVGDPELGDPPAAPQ
Description: Inhibition of recombinant human 17β-HSD1 (estrone to estradiol conversion, HPLC/radioactivity). The settings on record: compound 100 nM; 30 nM estrone, 1 mM NADPH, 30 min RT. As to the method: 17β-HSD1 production and isolation: Recombinant baculovirus was generated by the “Bac to Bac Expression System” (Invitrogen). Recombinant bacmid was transfected to Sd9 insect cells using “Cellfectin Reagent” (Invitrogen). 60 h later cells were harvested; the microsomal fraction was isolated as described by Puranen, T. J., Poutanen, M. H., Peltoketo, H. E., Vihko, P. T. and Vihko, R. K. (1994) Site-directed mutagenesis of the putative active site of human 17 β-hydroxysteroid dehydrogenase type 1. Biochem. J. 304: 289-293. Aliquots were stored frozen until determination of enzymatic activity.
Assay—Inhibition of recombinant human 17β-HSD1: Recombinant protein (1 μg/ml) was incubated in 20 mM KH2PO4 pH 7.4 with 30 nM estrone (including 800 000 cpm/ml of ^3H-estrone) and 1 mM NADPH for 30 min at RT, in the presence of the potential inhibitor at concentrations 1 μM or 0.1 μM. Inhibitor stock solutions were prepared in DMSO. Final concentration of DMSO was adjusted to 1% in all samples. The enzyme reaction was stopped by addition of 10% trichloroacetic acid (final concentration). Samples were centrifuged in a microtiter plate at 4000 rpm for 10 min. Supernatants were applied to reverse phase HPLC on a Waters Symmetry C18 column, equipped with a Waters Sentry Guard column. Isocratic HPLC runs were performed at RT at a flow rate of 1 ml/min in acetonitrile:water 48:52 as running solvent. Radioactivity was monitored in the eluate by a Scintillation Analyzer. Total radioactivity for estrone and estradiol were determined in each sample and percent conversion of estrone to estradiol was calculated according to the following formula:
% conversion=100×{(cpm estradiol in sample with inhibitor)/[(cpm estrone in sample with inhibitor)+(cpm estradiol in sample with inhibitor)]}/{[(cpm estradiol in sample without inhibitor)/[(cpm estrone in sample without inhibitor)+(cpm estradiol in sample without inhibitor)]}.
(§1) Percent inhibition was calculated followingly: % inhibition=100−% conversion.

Assay [2] addresses T2, recombinant human 17β-HSD2 (Homo sapiens, UniProt P37059).
T2 construct: made in house; host or cells: Sd9 (Sf9) insect cells, baculovirus (Bac to Bac Expression System)
T2 sequence (P37059 1-387): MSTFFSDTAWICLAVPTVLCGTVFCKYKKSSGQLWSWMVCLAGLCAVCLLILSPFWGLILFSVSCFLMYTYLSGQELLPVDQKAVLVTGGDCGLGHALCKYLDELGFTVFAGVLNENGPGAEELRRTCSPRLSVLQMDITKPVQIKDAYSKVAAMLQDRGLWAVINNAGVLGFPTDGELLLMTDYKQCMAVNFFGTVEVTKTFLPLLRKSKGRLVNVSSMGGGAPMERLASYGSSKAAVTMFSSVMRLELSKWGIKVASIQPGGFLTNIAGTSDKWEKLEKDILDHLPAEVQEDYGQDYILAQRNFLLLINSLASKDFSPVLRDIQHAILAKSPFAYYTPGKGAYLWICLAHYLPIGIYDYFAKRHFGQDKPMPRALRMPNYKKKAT
Description: Inhibition of recombinant human 17β-HSD2 (estradiol to estrone conversion, HPLC/radioactivity). Particulars: compound 1 μM; 50 nM estradiol, 1 mM NADH, 30 min RT. As to the method: 17β-HSD2 production and isolation: Similarly to 173-HSD1 the Recombinant baculovirus was generated by the “Bac to Bac Expression System” (Invitrogen). Recombinant bacmid was transfected to Sd9 insect cells using “Cellfectin Reagent” (Invitrogen). 60 h later cells were harvested and supernatant were fractionated by the following protocol: • cells were dissolved into 40 ml of A-buffer (40 mM TRIS, pH8.0, 20% glycerol, 20 μM NAD, 0.4 mM PMSF, 150 mM NaCl, 0.5% dodecyl-β-maltoside+protease inhibitor cocktail) • cells were sonicated • lysate was incubated on ice for 15 min • lysate was centrifuged 5000 rpm 15 min, +4° C. • centrifugation of the supernatant 180 000 g 30 min, +4° C. • pellet was dissolved into 8 ml of A-buffer • not resuspended material was removed by centrifugation 5000 rpm 15 min, +4° C. • the clear supernatant was divided into 100 μl aliquots and were stored frozen until determination of enzymatic activity.
The amount of 173-HSD2 was analysed by immunoblotting and total protein concentration of each extract batch was determined.
Assay—Inhibition of recombinant human 17β-HSD2: Recombinant protein (4 μg/ml) was incubated in 20 mM KH2PO4 pH 8.5 with 50 nM estradiol (including 800 000 cpm/ml of ^3H-estradiol) and 1 mM NADH for 30 min at RT, in the presence of the potential inhibitor at concentrations 1 μM or 0.1 μM. Inhibitor stock solutions were prepared in DMSO. Final concentration of DMSO was adjusted to 1% in all samples. The enzyme reaction was stopped by addition of 10% trichloroacetic acid (final concentration). Samples were centrifuged in a microtiter plate at 4000 rpm for 10 min. Supernatants were applied to reverse phase HPLC on a Waters Symmetry C18 column, equipped with a Waters Sentry Guard column. Isocratic HPLC runs were performed at RT at a flow rate of1 ml/min in acetonitrile:water 48:52 as running solvent. Radioactivity was monitored in the eluate by a Scintillation Analyzer. Total radioactivity for estrone and estradiol were determined in each sample and percent conversion of estradiol to estrone was calculated according to the following formula:
% conversion=100×{(cpm estrone in sample with inhibitor)/[(cpm estradiol in sample with inhibitor)+(cpm estrone in sample with inhibitor)]}/{[(cpm estrone in sample without inhibitor)/[(cpm estradiol in sample without inhibitor)+(cpm estrone in sample without inhibitor)]}.
as §1

In assay [3] the test system is HSD1 enzyme that is expressed in rabbit placenta tissue. Put plainly: Inhibition of E1 to E2 conversion in rabbit placenta tissue homogenate. Particulars: compound 100 nM, 30 nM estrone, 1 mM β-NADPH, 30 min. Here is the method:
The assay is based on an enzymatic reaction where HSD1 enzyme that is expressed in rabbit placenta tissue converts its natural substance estrone (E1) to estradiol (E2) in the presence of a co-factor β-NADPH.
Homogenization of rabbit placenta tissue: Weight a piece of the frozen tissue into a Precellys ck28 bead tube. Add buffer solution (20 mM KH2PO4 with 1 mM EDTA, pH 7.4) in 1:2 ratio (e.g. 300 mg of tissue:600 μl reaction buffer solution). Insert the bead tubes to homogenizer and homogenize 2×30 s. 6000 rpm.
Centrifugated 5 min., 2600 rpm at +4° C. and collect supernatant. Aliquots of homogenate are stored in −80° C.
Assay—Inhibition of E1 to E2 conversion in rabbit placenta tissue: The reaction takes place in a buffer solution (20 mM KH2PO4 with 1 mM EDTA, pH 7,4), including appropriate amount of rabbit placenta homogenate, co-factor (1 mM β-NADPH), Substrate (30 nM estrone), labelled substrate as tracer (5 nM [^3H]-estrone), and the potential inhibitor at concentrations 1 μM or 0.1 μM. Inhibitor stock solutions were prepared in DMSO. Final concentration of DMSO was adjusted to 1% in all samples. During a 30-minute incubation part of the estrone is converted to estradiol. The reaction is stopped by lowering the pH to 1 with 10% trichloro acetic acid (TCA). The substrate and conversion products are analyzed by HPLC and a Scintillation counter analyzer. Total radioactivity for estrone and estradiol were determined in each sample and percent conversion of estrone to estradiol was calculated according to the following formula:
% conversion=100×{(cpm estradiol in sample with inhibitor)/[(cpm estrone in sample with inhibitor)+(cpm estradiol in sample with inhibitor)]}/{(cpm estradiol in sample without inhibitor)/[(cpm estrone in sample without inhibitor)+(cpm estradiol in sample without inhibitor)]}.
as §1

A word on the inhibition: it is the change of the read-out against control, counted positive when it falls.

Turning to `Cn1cc(NC(=O)CC[C@@H]2c3c[nH]nc3[C@@]3(C)CCC4c5cccc(F)c5CCC4C23)cn1` (stereo partly drawn) [Compound 63, 3-((8aS,12S)-3-fluoro-8a-methyl-1,2,6b,7,8,8a,10,12,12a,12b-decahydronaphtho[2′,1′:4,5]indeno[1,2-c]pyrazol-12-yl)-N-(1-methyl-1H-pyrazol-4-yl)propanamide], the inhibition at 0.1 µM in assay [1] stood at 96%. Moreover, in assay [2], the inhibition at 1 µM stood at 2%. The “Rabbit placenta inhibition % @100 nM” value in assay [3] is given as 62%.
On the same counts, the results for `Cc1nnc(NC(=O)CC[C@@H]2c3c[nH]nc3[C@@]3(C)CCC4c5cccc(F)c5CCC4C23)o1` (stereo partly drawn) [Compound 66, 3-((8aS,12S)-3-fluoro-8a-methyl-1,2,6b,7,8,8a,10,12,12a,12b-decahydronaphtho[2′,1′:4,5]indeno[1,2-c]pyrazol-12-yl)-N-(5-methyl-1,3,4-oxadiazol-2-yl)propanamide] are 74%, 3% and 39%.
The like results for `C[C@]12CCC3c4cccc(F)c4CCC3C1[C@H](CCC(=O)NN1CCCCC1)c1c[nH]nc12` (stereo partly drawn) [Compound 69, 3-((8aS,12S)-3-fluoro-8a-methyl-1,2,6b,7,8,8a,10,12,12a,12b-decahydronaphtho[2′,1′:4,5]indeno[1,2-c]pyrazol-12-yl)-N-(piperidin-1-yl)propanamide] were, in that order, 93%, 1% and 10%.
For `CN1CCC(N2CCN(C(=O)CC[C@@H]3c4c[nH]nc4[C@@]4(C)CCC5c6cccc(F)c6CCC5C34)CC2)CC1` (stereo partly drawn) [Compound 75, 3-((8aS,12S)-3-fluoro-8a-methyl-1,2,6b,7,8,8a,10,12,12a,12b-decahydronaphtho[2′,1′:4,5]indeno[1,2-c]pyrazol-12-yl)-1-(4-(1-methylpiperidin-4-yl)piperazin-1-yl)propan-1-one], the inhibition at 0.1 µM in assay [1] came out at 71%. The inhibition at 1 µM in assay [2] was 2%. Also, the “Rabbit placenta inhibition % @100 nM” value in assay [3] is reported as 15%.
For `Cc1cc(NC(=O)CC[C@@H]2c3c[nH]nc3[C@@]3(C)CCC4c5cccc(F)c5CCC4C23)no1` (stereo partly drawn) [Compound 78, 3-((8aS,12S)-3-fluoro-8a-methyl-1,2,6b,7,8,8a,10,12,12a,12b-decahydronaphtho[2′,1′:4,5]indeno[1,2-c]pyrazol-12-yl)-N-(5-methylisoxazol-3-yl)propanamide], in assay [1], the inhibition at 0.1 µM was 87%. Besides, the inhibition at 1 µM in assay [2] came to 3%. The “Rabbit placenta inhibition % @100 nM” value in assay [3] is on record as 39%.
The like results for `C[C@]12CCC3c4cccc(F)c4CCC3C1[C@H](CCC(=O)Nc1nncs1)c1c[nH]nc12` (stereo partly drawn) [Compound 81, 3-((8aS,12S)-3-fluoro-8a-methyl-1,2,6b,7,8,8a,10,12,12a,12b-decahydronaphtho[2′,1′:4,5]indeno[1,2-c]pyrazol-12-yl)-N-(1,3,4-thiadiazol-2-yl)propanamide] were, in that order, 81%, 3% and 31%.
On the same counts, the results for `CC(C)(C)c1cc(NC(=O)CC[C@@H]2c3c[nH]nc3[C@@]3(C)CCC4c5ccc(F)cc5CCC4C23)no1` (stereo partly drawn) [Compound 102, N-(5-(tert-butyl)isoxazol-3-yl)-3-((8aS,12 S)-4-fluoro-8a-methyl-1,2,6b,7,8,8a,10,12,12a,12b-decahydronaphtho[2′,1′:4,5]indeno[1,2-c]pyrazol-12-yl)propanamide] are 80%, 8% and 19%.
The like results for `C[C@]12CCC3c4ccc(F)cc4CCC3C1[C@H](CCC(=O)Nc1cccc(F)n1)c1c[nH]nc12` (stereo partly drawn) [Compound 105, 3-((8aS,12S)-4-fluoro-8a-methyl-1,2,6b,7,8,8a,10,12,12a,12b-decahydronaphtho[2′,1′:4,5]indeno[1,2-c]pyrazol-12-yl)-N-(6-fluoropyridin-2-yl)propanamide] were, in that order, 82%, 9% and 28%.
For the compound `COc1ccc(NC(=O)CC[C@@H]2c3c[nH]nc3[C@@]3(C)CCC4c5ccc(F)cc5CCC4C23)nn1` (stereo partly drawn) [Compound 108, 3-((8aS,12S)-4-fluoro-8a-methyl-1,2,6b,7,8,8a,10,12,12a,12b-decahydronaphtho[2′,1′:4,5]indeno[1,2-c]pyrazol-12-yl)-N-(6-methoxypyridazin-3-yl)propanamide], the inhibition at 0.1 µM in assay [1] amounted to 56%. For the same compound, the inhibition at 1 µM in assay [2] was -2%. In addition, the “Rabbit placenta inhibition % @100 nM” value in assay [3] came out at 45%.
